Each structure is given as a SMILES string.

Consider 12 compounds from patent publication US20150284375A1 (AJINOMOTO CO., INC., priority 2012, published 2015).

The target in this experiment is T1, human TRPA1 (Homo sapiens, UniProt O75762).
T1 construct: expressed in transfected cells; host or cells: Human embryonic kidney-derived 293T cells, transiently transfected with the pcDNA3.1/zeo(+) human TRPA1 plasmid
T1 sequence (O75762 whole entry): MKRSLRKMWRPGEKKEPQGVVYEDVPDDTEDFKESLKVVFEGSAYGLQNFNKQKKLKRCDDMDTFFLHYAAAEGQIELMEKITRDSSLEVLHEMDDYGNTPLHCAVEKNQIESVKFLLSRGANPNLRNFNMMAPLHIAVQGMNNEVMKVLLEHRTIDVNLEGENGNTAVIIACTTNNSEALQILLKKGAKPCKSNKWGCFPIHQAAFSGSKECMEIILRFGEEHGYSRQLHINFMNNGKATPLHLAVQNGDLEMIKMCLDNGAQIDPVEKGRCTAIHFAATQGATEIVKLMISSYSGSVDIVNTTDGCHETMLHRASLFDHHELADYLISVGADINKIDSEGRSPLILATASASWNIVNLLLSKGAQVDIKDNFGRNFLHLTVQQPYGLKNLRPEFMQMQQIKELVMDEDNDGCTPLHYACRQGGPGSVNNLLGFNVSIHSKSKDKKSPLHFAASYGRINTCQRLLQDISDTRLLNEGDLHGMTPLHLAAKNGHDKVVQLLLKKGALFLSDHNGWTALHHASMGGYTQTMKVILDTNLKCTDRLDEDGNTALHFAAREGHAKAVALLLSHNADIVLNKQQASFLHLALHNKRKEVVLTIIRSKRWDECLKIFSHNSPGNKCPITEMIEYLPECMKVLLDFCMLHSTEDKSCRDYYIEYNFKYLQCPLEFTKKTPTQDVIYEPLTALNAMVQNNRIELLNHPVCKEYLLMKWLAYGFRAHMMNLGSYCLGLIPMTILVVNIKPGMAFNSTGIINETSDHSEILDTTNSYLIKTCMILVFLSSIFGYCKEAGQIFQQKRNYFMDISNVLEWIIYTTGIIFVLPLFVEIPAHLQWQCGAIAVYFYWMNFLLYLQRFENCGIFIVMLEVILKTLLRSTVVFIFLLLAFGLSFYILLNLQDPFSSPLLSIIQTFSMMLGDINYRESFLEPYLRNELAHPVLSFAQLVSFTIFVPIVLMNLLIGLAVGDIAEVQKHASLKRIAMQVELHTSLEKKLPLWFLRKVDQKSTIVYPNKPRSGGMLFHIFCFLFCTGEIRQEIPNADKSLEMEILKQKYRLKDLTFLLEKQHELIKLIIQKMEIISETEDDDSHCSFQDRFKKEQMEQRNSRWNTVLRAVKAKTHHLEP
Description: Measurement of TRPA1 antagonist activity (intracellular calcium increase, FLIPR, allylisothiocyanate stimulation). In kind it is cell-based. To be noted: 293T cells transfected with human TRPA1; allylisothiocyanate 20 μM; concentration for 50% inhibitory rate; read-out: antagonism hTRPA1. The text has this:
Measurement of TRPA1 Antagonist Activity
Human TRPA1 Expression Plasmid
As cDNA encoding human TRPA1 (GenBank accession No. […]), a commercially available product was purchased (manufactured by Kazusa DNA Research Institute, clone No.: pFN21AB7348, item No.: FHC07217). Using this as a template, full-length human TRPA1 gene was amplified using the primer sequences shown below, by reaction using DNA polymerase (manufactured by Stratagene, trade name: PfuUltra High-Fidelity DNA Polymerase).
A recognition site (underlined) of restriction enzyme HindIII was added to the 5′ side, and XbaI site (underlined) was added to the 3′ side, and GTT of the template sequence was changed to termination codon TAG (bold). The obtained double stranded DNA was enzyme-digested with HindIII and XbaI, and introduced into a multicloning site of expression plasmid pcDNA3.1/zeo(+) (manufactured by Invitrogen) to give a human TRPA1 expression plasmid.
Human embryonic kidney-derived 293T cells were cultured in Dulbecco's Modified Eagle Medium containing 10% fetal bovine serum, 10 unit penicillin, and 10 μg streptomycin, plated on a petri dish having a diameter of 10 cm at 3×10^6 cells, and cultured for 24 hr. A medium containing a reduced amount of serum (manufactured by Invitrogen, trade name: OPTI-MEM, 600 μL), a gene insertion reagent (manufactured by Mirus Bio, trade name: Mirus TransIT-293, 18 μL), and human TRPA1 expression plasmid (6 μg) were mixed, the total amount of the mixture was added to the cells on the petri dish to allow for gene transfer. The cells were recovered about 8 hr later, plated on a poly-D-lysine coated 384 well black/clear bottom plate at 7,500-12,000 cells/well, and cultured overnight.
Measurement of Intracellular Calcium Increase
The 384 well plate was recovered, and the medium was removed. A calcium-bonded fluorescent indicator (manufactured by Molecular Device, trade name: Calcium4 Assay Kit, 40 μL) dissolved in assay buffer (1×HBSS, 20 mM HEPES, pH 7.2) was added, and the cells were stained in a 37° C. incubator for 1 hr. The cells were taken out at room temperature and left standing for 15 min or more. A test substance (10 μL) was added by a 384 well type dispenser, and the mixture was incubated at room temperature for 10 min. Then, allylisothiocyanate (12.5 μL) at a final concentration of 20 μM was added by a fluorescence imaging plate reader (manufactured by Molecular Device, FLIPR), and changes in the relative fluorescence intensity were measured for 5 min.
Test Substance Preparation
The test substance was dissolved in dimethyl sulfoxide and serially diluted with an assay buffer containing 0.1% bovine serum albumin (1×HBSS, 20 mM HEPES, pH 7.2) to a 5-fold concentration of the evaluation concentration. Allylisothiocyanate, which is a known TRPA1 activator, was dissolved in dimethyl sulfoxide to 100 mM, and further diluted 5-fold (100 μM) of the final concentration, like the test substance.
Calculation of Antagonist Activity
Under the test substance-free conditions, the maximum variation range of the fluorescence intensity before and after allylisothiocyanate stimulation was defined to be 100% activity rate, and the variation range before and after buffer stimulation was defined as 0% activity rate. The activity rate on addition of the test substance was determined, and the numerical value obtained by subtracting the activity rate from 100 was defined to be an inhibitory rate. 1050, which is the concentration of the test substance necessary for reaching the 50% inhibitory rate, was calculated from the sigmoid approximate curve by a spreadsheet software Excel-Fit.
With `O=C(NCc1cccc(Oc2ccccc2C(F)(F)F)c1)[C@@H]1CCCN1S(=O)(=O)c1ccc(Cl)s1` [Example 23, (2S)-1-(5-chlorothiophene-2-sulfonyl)-N-({3-[2-(trifluoro-methyl)phenoxy]phenyl}methyl)pyrrolidine-2-carboxamide], the IC50 turned out to be 380 nM.
For the compound `O=C(NCc1ccc(Oc2cccc(C(F)(F)F)c2)c(Cl)c1)[C@@H]1CCCN1S(=O)(=O)c1ccc(Cl)s1` [Example 24, (2S)-1-(5-chlorothiophene-2-sulfonyl)-N-({3-chloro-4-[3-(trifluoro-methyl)phenoxy]phenyl}methyl)pyrrolidine-2-carboxamide], the IC50 came to 140 nM.
As for `O=C(NCc1ccc(Oc2cccc(C(F)(F)F)c2)c(F)c1)[C@@H]1CCCN1S(=O)(=O)c1ccc(Cl)s1` [Example 25, (2S)-1-(5-chlorothiophene-2-sulfonyl)-N-({3-fluoro-4-[3-(trifluoro-methyl)phenoxy]phenyl}methyl)pyrrolidine-2-carboxamide], the figure is 130 nM; as for `O=C(NCc1c(F)cc(Oc2cccc(C(F)(F)F)c2)cc1F)[C@@H]1CCCN1S(=O)(=O)c1ccc(Cl)s1` [Example 26, (2S)-1-(5-chlorothiophene-2-sulfonyl)-N-({2,6-difluoro-4-[3-(trifluoro-methyl)phenoxy]phenyl}methyl)pyrrolidine-2-carboximide], 930 nM; as for `O=C(NCc1ccc(F)c(Oc2ccc(C(F)(F)F)cc2)c1F)[C@@H]1CCCN1S(=O)(=O)c1ccc(Cl)s1` [Example 27, (2S)-1-(5-chlorothiophene-2-sulfonyl)-N-({2,4-difluoro-3-[4-(trifluoro-methyl)phenoxy]phenyl}methyl)pyrrolidine-2-carboxamide], 220 nM.
On to `O=C(NCc1c(F)ccc(Oc2ccc(C(F)(F)F)cc2)c1Cl)[C@@H]1CCCN1S(=O)(=O)c1ccc(Cl)s1` [Example 28, (2S)-N-({2-chloro-6-fluoro-3-[4-(trifluoromethyl)phenoxy]phenyl}methyl)-1-(5-chlorothiophene-2-sulfonyl)pyrrolidine-2-carboxamide], for which the IC50 is 1900 nM.
Consider `O=C(NCc1ccc(Oc2cccc(C(F)(F)F)c2)cc1)[C@@H]1C=CCN1S(=O)(=O)c1ccc(Cl)s1` [Example 29, (2S)-1-(5-chlorothiophene-2-sulfonyl)-N-({4-[3-(trifluoromethyl)phenoxy]phenyl}methyl)-2,5-dihydropyrrole-2-carboxamide], for which the IC50 was 140 nM.
For `O=C(NCc1ccc(Oc2cccc(C(F)(F)F)c2)cc1)[C@@H]1CCCN1S(=O)(=O)c1ccc(F)cc1` [Example 30, (2S)-1-(4-fluorophenyl)sulfonyl-N-({4-[3-(trifluoro-methyl)phenoxy]phenyl}methyl)pyrrolidine-2-carboxamide], the IC50 amounted to 230 nM.
As for `O=C(NCc1ccc(Oc2cccc(C(F)(F)F)c2)cc1)[C@@H]1CCN1S(=O)(=O)c1ccc(Cl)s1` [Example 31, (2S)-1-(5-chlorothiophene-2-sulfonyl)-N-({4-[3-(trifluoro-methyl)phenoxy]phenyl}methyl)azetidine-2-carboxamide], the figure is 900 nM; as for `O=C(NCc1cccc(Oc2ccc(C(F)(F)F)cc2)c1)[C@@H]1C=CCN1S(=O)(=O)c1ccc(Cl)s1` [Example 32, (2S)-1-(5-chlorothiophene-2-sulfonyl)-N-({3-[4-(trifluoro-methyl)phenoxy]phenyl}methyl)-2,5-dihydropyrrole-2-carboxamide], 19 nM; as for `O=C(NCc1cccc(Oc2ccc(C(F)(F)F)cc2)c1)[C@@H]1CCCN1S(=O)(=O)c1ccc(F)cc1` [Example 33, (2S)-1-(4-fluorophenyl)sulfonyl-N-({3-[4-(trifluoro-methyl)phenoxy]phenyl}methyl)pyrrolidine-2-carboxamide], 56 nM.
Take `O=C(NCc1cccc(Oc2ccc(C(F)(F)F)cc2)c1)[C@@H]1CCN1S(=O)(=O)c1ccc(Cl)s1` [Example 34, (2S)-1-(5-chlorothiophene-2-sulfonyl)-N-({3-[4-(trifluoro-methyl)phenoxy]phenyl}methyl)azetidine-2-carboxamide]: the IC50 was 150 nM.
